Earlier results in US20070243260A1, “Treatment of Childhood Asthma” (priority 2004, published 2007).

Columns and labels:
[1] = system: asthma; conditions: inhaled; up to 8 hours appears to be maximal
[2] = system: asthma; conditions: single administration, metered-dose aerosol

## C[N+]1(C)CCC(OC(=O)C(O)(c2ccccc2)C2CCCC2)C1 (centres unmarked) [glycopyrrolate]
[1]
  Duration of effective treatment: up to 12 hours
[2]
  Period of bronchodilation: 12 h
